The values that follow come from publication PMC9645260, “Small-molecule inhibitors of P-Rex guanine-nucleotide exchange factors” (Small GTPases, 2022).

SMILES strings stand for the structures.

One assay deals with T1, full-length P-Rex1 (Homo sapiens, UniProt Q8TCU6).
T1 construct: Full-length N-terminally EE-tagged P-Rex1, P-Rex2, the P-Rex1 DH and DHPH domains and the P-Rex2 DH domain were produced in Sf9 cells; made in house; host or cells: Sf9 cells (baculovirus)
As to the kind of experiment: Liposome-based GEF activity assay, PIP3-stimulated full-length P-Rex1. As to conditions: for effect on PIP3-stimulated Rac-GEF activity of full-length P-Rex1: 1, 5 and 10 µM, Rac1 or Rac2 as substrate. In kind it is biochemical. An excerpt: All small GTPases and GEFs used were human recombinant proteins. EE-Rac1, EE-Rac2, GST-Cdc42 or GST-RhoA were expressed in Sf9 cells by baculoviral transduction and purified using their epitope tag in their post-translationally prenylated form using Triton X-114 phase separation, essentially as previously described. Briefly, frozen pellets from a 1 litre culture of Sf9 cells transduced with high-titre baculovirus expressing the small GTPase were resuspended in ice-cold Sf9-cell lysis buffer 1 (1x PBS, 40 mM HEPES pH 7.5 at RT, 5 mM MgCl2, 10 mM EGTA, 300 µM GDP, 1 mM DTT, 200 µM PMSF, 20 μg/ml each of leupeptin, pepstatin A, aprotinin and antipain) and lysed by sonication. Triton X-114 was added (to 1% final concentration), and samples were ultracentrifuged at 118,000 × g for 50 min at 4°C. The supernatant was warmed at 37°C until cloudy (30–60 seconds) and centrifuged at 1300 × g for 2 min at 37°C. The upper phase containing non-lipid modified GTPase was discarded and replaced with ice-cold Sf9-cell lysis buffer. The warming/centrifugation steps were repeated twice and lipid-modified GTPase resuspended in ice-cold Sf9-cell lysis buffer 1 supplemented with Triton X-100 (1% final concentration), followed by ultracentrifugation at 118,000 × g for 50 min at 4°C. For EE-tagged GTPases, supernatants were incubated with anti-EE antibody covalently coupled to protein G-Sepharose beads (anti-EE beads, Onyx Pharmaceuticals) and incubated with end-over-end rotation for 90 min on ice. Beads were washed 3 times in wash buffer (PBS, 5 mM MgCl2, 1 mM DTT, 10 μM GDP, 1 mM EGTA, 0.2% Triton X-100) and 5x in elution buffer (40 mM HEPES pH 7.5, 150 mM NaCl, 5 mM MgCl2, 1 mM EGTA, 1 mM DTT, 10 µM GDP). Protein was eluted by three incubations with elution buffer containing peptide Ac-EEYMPME (Activotec, Comberton, UK) and cholate (first 1%, then twice 0.5%) for 20 min on ice. For GST-tagged GTPases, supernatants were incubated with glutathione Sepharose beads and were eluted with glutathione in the same manner. Proteins were concentrated in a YM-10 Centricon (Millipore) at 5000 × g, 4°C. Protein concentration and purity was determined by coomassie staining of SDS-PAGE gels. For use in the mant-GTP assay, EE-Rac 1 was expressed in BL21 (DE3) bacteria (NEB, C25271), by induction with 0.5 mM IPTG overnight at 18°C. Bacterial pellets from 500 ml cultures were resuspended in 20 ml bacterial lysis buffer (40 mM Hepes, pH 7.5 at 4°C, 150 mM NaCl, 1% Triton X-100, 5 mM MgCl2, 1 mM DTT, 300 μM GDP, 200 µM PMSF, and 20 μg/ml each of leupeptin, pepstatin A, aprotinin and antipain) and were lysed by sonication. 5 μg/ml DNAse and 5 μg/ml RNAse were added and the lysate incubated on ice for 10 min. […]

For another assay, the system named is Rac1 or Rac2. Kind of assay: Basal GTP-loading of Rac in the absence of P-Rex1 (liposome-based assay). The class given is biochemical, human. As to conditions: 10 µM. An excerpt: All small GTPases and GEFs used were human recombinant proteins. EE-Rac1, EE-Rac2, GST-Cdc42 or GST-RhoA were expressed in Sf9 cells by baculoviral transduction and purified using their epitope tag in their post-translationally prenylated form using Triton X-114 phase separation, essentially as previously described. Briefly, frozen pellets from a 1 litre culture of Sf9 cells transduced with high-titre baculovirus expressing the small GTPase were resuspended in ice-cold Sf9-cell lysis buffer 1 (1x PBS, 40 mM HEPES pH 7.5 at RT, 5 mM MgCl2, 10 mM EGTA, 300 µM GDP, 1 mM DTT, 200 µM PMSF, 20 μg/ml each of leupeptin, pepstatin A, aprotinin and antipain) and lysed by sonication. Triton X-114 was added (to 1% final concentration), and samples were ultracentrifuged at 118,000 × g for 50 min at 4°C. The supernatant was warmed at 37°C until cloudy (30–60 seconds) and centrifuged at 1300 × g for 2 min at 37°C. The upper phase containing non-lipid modified GTPase was discarded and replaced with ice-cold Sf9-cell lysis buffer. The warming/centrifugation steps were repeated twice and lipid-modified GTPase resuspended in ice-cold Sf9-cell lysis buffer 1 supplemented with Triton X-100 (1% final concentration), followed by ultracentrifugation at 118,000 × g for 50 min at 4°C. […] Protein concentration and purity was determined by coomassie staining of SDS-PAGE gels. […]

T1 sequence (Q8TCU6 whole entry, the tested form may be a part): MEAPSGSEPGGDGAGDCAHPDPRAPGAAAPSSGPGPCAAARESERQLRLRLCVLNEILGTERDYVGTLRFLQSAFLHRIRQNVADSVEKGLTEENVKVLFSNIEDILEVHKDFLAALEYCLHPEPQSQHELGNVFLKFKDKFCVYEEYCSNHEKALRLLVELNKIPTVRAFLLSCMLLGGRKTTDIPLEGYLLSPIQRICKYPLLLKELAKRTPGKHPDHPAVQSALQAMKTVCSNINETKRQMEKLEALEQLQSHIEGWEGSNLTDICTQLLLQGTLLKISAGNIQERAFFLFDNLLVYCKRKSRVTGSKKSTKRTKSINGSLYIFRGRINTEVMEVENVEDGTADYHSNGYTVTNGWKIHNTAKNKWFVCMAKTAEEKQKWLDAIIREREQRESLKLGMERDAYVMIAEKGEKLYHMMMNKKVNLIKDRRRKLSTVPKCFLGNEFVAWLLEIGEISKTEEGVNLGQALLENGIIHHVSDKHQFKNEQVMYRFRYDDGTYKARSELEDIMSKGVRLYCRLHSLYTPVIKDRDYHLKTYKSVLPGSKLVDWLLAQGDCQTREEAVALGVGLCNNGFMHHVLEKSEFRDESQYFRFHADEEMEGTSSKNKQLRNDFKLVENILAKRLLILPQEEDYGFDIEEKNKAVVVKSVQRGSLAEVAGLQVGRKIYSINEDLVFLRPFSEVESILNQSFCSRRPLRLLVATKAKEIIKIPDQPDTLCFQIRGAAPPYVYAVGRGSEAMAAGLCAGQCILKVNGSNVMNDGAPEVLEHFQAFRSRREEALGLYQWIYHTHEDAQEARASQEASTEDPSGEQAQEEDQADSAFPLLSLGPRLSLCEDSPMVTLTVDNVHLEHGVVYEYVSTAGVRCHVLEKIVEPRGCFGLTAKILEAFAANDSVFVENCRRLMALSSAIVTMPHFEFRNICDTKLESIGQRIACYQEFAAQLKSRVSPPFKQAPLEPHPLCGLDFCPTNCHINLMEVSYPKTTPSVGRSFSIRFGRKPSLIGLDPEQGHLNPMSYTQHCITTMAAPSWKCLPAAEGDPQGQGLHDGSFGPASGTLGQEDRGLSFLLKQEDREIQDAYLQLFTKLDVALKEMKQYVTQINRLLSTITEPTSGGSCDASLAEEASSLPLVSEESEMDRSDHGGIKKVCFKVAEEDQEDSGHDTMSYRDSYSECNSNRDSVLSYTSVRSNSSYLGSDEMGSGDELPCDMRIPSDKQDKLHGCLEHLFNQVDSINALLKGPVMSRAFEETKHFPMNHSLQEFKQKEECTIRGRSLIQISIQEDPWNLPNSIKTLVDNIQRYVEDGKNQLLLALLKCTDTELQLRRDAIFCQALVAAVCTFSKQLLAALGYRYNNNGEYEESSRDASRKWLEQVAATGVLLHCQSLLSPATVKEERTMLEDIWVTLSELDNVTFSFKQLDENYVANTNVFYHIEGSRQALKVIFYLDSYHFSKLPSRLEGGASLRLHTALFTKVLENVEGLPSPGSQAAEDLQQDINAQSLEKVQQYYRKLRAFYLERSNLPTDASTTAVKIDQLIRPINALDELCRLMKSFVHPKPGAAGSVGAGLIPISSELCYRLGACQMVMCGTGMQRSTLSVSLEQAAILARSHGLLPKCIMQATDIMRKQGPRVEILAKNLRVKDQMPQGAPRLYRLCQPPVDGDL

Turning to `COc1ccc(-c2[nH]nc3c2C(c2ccc(-c4ccc(Cl)cc4)o2)C(C#N)=C(N)O3)cc1` (centres unmarked) [PREX-in1, 6-amino-4-[5-(4-chlorophenyl)-2-furyl]-3-(4-methoxyphenyl)-2,4-dihydropyrano[2,3-c]pyrazole-5-carbonitrile], on full-length P-Rex1 (10 µM, 50 nM P-Rex1, 100 nM prenylated Rac1, 10 µM PIP3), the “reduction of PIP3-stimulated Rac-GEF activity of full-length P-Rex1” value was found to be 56%. Further, the “effect on PIP3-stimulated Rac-GEF activity of full-length P-Rex1” value on full-length P-Rex1 was “inhibited”. Moreover, the “effect on basal GTP-loading of Rac1 or Rac2 in the absence of P-Rex1” value in the assay on Rac1 or Rac2 was “neither compound affected”.

`CC1CCC(C(C)C)c2nn(C(=O)/C=C\c3ccccc3)c(-c3cccc4ccccc34)c21` (centres unmarked) [#10]: the “effect on PIP3-stimulated Rac-GEF activity of full-length P-Rex1” value at full-length P-Rex1 is reported as “inhibited”. Also, the “effect on basal GTP-loading of Rac1 or Rac2 in the absence of P-Rex1” value with Rac1 or Rac2 was “neither compound affected”.
